Experimental findings from patent US7816535B2, “Vinyl-phenyl derivatives for inflammation and immune-related uses” (Synta Pharmaceuticals Corp., priority 2006, dated 2010) are described below.

Where a name gives a salt, the structure may show the parent alone.

The subject of one experiment is IL-2 production. Briefly: Inhibition of IL-2 production in PHA-activated Jurkat cells (ELISA). It counts as cell-based. Particulars: Homo sapiens, Jurkat, 20 h, PHA 2.5 μg/mL, IL-2 ELISA. In general terms: In an ELISA, binding on a coated surface is turned into a signal by an enzyme label.
Consider `CC1=C(c2ccc(NC(=O)c3ncncc3C)cc2)CN(c2nccs2)CC1` [Compound 77, 5-Methyl-pyrimidine-4-carboxylic acid [4-(1-thiazol-2-yl-4-methyl-1,2,5,6-tetrahydro-pyridin-3-yl)-phenyl]-amide], for which the IC50 stood at 0.0993 µM.

Consider `O=CC1=C(c2ccc(NC(=O)c3c(F)cccc3F)cc2)CN(c2nccs2)CC1` [Compound 78, 2,6-Difluoro-N-[4-(1-thiazol-2-yl-4-formyl-1,2,5,6-tetrahydro-pyridin-3-yl)-phenyl]-benzamide], for which the IC50 stood at 0.227 µM.

The compound `CC1=C(c2ccc(NC(=O)c3c(F)cccc3F)cc2)CN(c2nc(C)co2)CC1` [Compound 80, 2,6-Difluoro-N-{4-[1-(4-methyl-oxazol-2-yl)-4-methyl-1,2,5,6-tetrahydro-pyridin-3-yl]-phenyl}-benzamide] displayed an IC50 of 0.0985 µM. This IC50 is about 2.3-fold lower than that of the compound before.

In turn, `CC1=C(c2ccc(NC(=O)c3ncncc3C)cc2)CN(c2nc(C)c(C)o2)CC1` [Compound 81, 5-Methyl-pyrimidine-4-carboxylic acid {4-[1-(4,5-dimethyl-oxazol-2-yl)-4-methyl-1,2,5,6-tetrahydro-pyridin-3-yl]-phenyl}-amide] returned an IC50 greater than 1 µM.

In turn, `CC1=C(c2ccc(NC(=O)c3c(F)cccc3F)cc2)CN(c2nc(C)c(C)o2)CC1` [Compound 82, 2,6-Difluoro-N-{4-[1-(4,5-dimethyl-oxazol-2-yl)-4-methyl-1,2,5,6-tetrahydro-pyridin-3-yl]-phenyl}-benzamide] came in with an IC50 of 0.0595 µM.

`CC1=C(c2ccc(NC(=O)c3ccncc3F)cc2)CN(c2nnnn2C)CC1` [Compound 85, N-{4-[1-(1-methyl-1H-tetrazol-5-yl)-4-methyl-1,2,5,6-tetrahydro-pyridin-3-yl]-phenyl}-3-fluoro-isonicotinamide]: 0.0441 µM corresponded to half-maximal inhibition (IC50).

`CC1=C(c2ccc(NC(=O)c3ccncc3F)cc2)CN(c2cncnc2)CC1` [Compound 90, N-[4-(1-pyrimidin-5-yl-4-methyl-1,2,5,6-tetrahydro-pyridin-3-yl)-phenyl]-3-fluoro-isonicotinamide] showed an IC50 of 0.126 µM.

For `CC1=C(c2ccc(NC(=O)c3c(F)cccc3F)cc2)CCN(c2nccs2)C1` [Compound 91, 2,6-Difluoro-N-[4-(1-thiazol-2-yl-3-methyl-1,2,5,6-tetrahydro-pyridin-4-yl)-phenyl]-benzamide], the IC50 is 0.226 µM.

`CC(C)=C(c1ccccc1)c1ccc(NC(=O)c2c(F)cccc2F)cc1` [Compound 92, 2,6-Difluoro-N-[4-(2-methyl-1-phenyl-propenyl)-phenyl]-benzamide] gave an IC50 of 0.0438 µM.

`COc1ccc(C(=C(C)C)c2ccc(NC(=O)c3c(F)cccc3F)cc2)cc1` [Compound 93, 2,6-Difluoro-N-{4-[2-methyl-1-(4-methoxy-phenyl)-propenyl]-phenyl}-benzamide]: 0.0546 µM corresponded to half-maximal inhibition (IC50).

Regarding `COc1cccc(C(=C(C)C)c2ccc(NC(=O)c3c(F)cccc3F)cc2)c1` [Compound 94, 2,6-Difluoro-N-{4-[2-methyl-1-(3-methoxy-phenyl)-propenyl]-phenyl}-benzamide], the IC50 was 0.138 µM.

With `COc1ccccc1C(=C(C)C)c1ccc(NC(=O)c2c(F)cccc2F)cc1` [Compound 95, 2,6-Difluoro-N-{4-[2-methyl-1-(2-methoxy-phenyl)-propenyl]-phenyl}-benzamide], the IC50 was 0.156 µM.

Take `CC(=O)OCC(C)=C(C)c1ccc(NC(=O)c2c(F)cccc2F)cc1` [Compound 96, 2,6-Difluoro-N-[4-(1,2-dimethyl-3-acetoxy-propenyl)-phenyl]-benzamide]: the IC50 was found to be 0.631 µM.

On to `CCOC(=O)C1=C(c2ccc(NC(=O)c3c(F)cccc3F)cc2)CCCC1` [Compound 99, N-[4-(2-ethyoxycarbonyl-cyclohex-1-enyl)-phenyl]-2,6-difluoro-benzamide], for which the IC50 was 0.282 µM.

The compound `O=CC1=C(c2ccc(NC(=O)c3c(F)cccc3F)cc2)CCCC1` [Compound 100, N-[4-(2-formyl-cyclohex-1-enyl)-phenyl]-2,6-difluoro-benzamide] registered an IC50 of 0.09 µM.

For `C=CC1=C(c2ccc(NC(=O)c3c(F)cccc3F)cc2)CCCC1` [Compound 101, N-[4-(2-vinyl-cyclohex-1-enyl)-phenyl]-2,6-difluoro-benzamide], the IC50 was determined as 0.011 µM.

`COC(=O)N1CCC(C)=C(c2ccc(NC(=O)c3ccncc3C)cc2)C1` [Compound 103, N-[4-(1-methoxycarbonyl-4-methyl-1,2,5,6-tetrahydro-pyridin-3-yl)-phenyl]-3-methyl-isonicotinamide] showed an IC50 of 0.15 µM.

The experiment is the same for the next values; noted with them: PHA 2.5 μg/mL, 20 hours, IL-2 ELISA, dihydrochloride.
The compound `CC1=C(c2ccc(NC(=O)c3ccncc3F)cc2)CN(c2nccs2)CC1` [Compound 74, N-[4-(1-thiazol-2-yl-4-methyl-1,2,5,6-tetrahydro-pyridin-3-yl)-phenyl]-3-fluoro-isonicotinamide, dihydrochloride] showed an IC50 of 0.005 µM.

The same experiment, now with this note: PHA 2.5 μg/mL, 20 hours, IL-2 ELISA, hydrochloride.
Take `CC1=C(c2ccc(NC(=O)c3c(F)cccc3F)cc2)CN(c2nccs2)CC1` [Compound 75, 2,6-Difluoro-N-[4-(1-thiazol-2-yl-4-methyl-1,2,5,6-tetrahydro-pyridin-3-yl)-phenyl]-benzamide, hydrochloride]: the midpoint of inhibition, the IC50, lay at 0.011 µM.

What is called IC50 is the concentration at which inhibition is half-maximal. Low values mean inhibition by little substance, high ones a need for much substance.
